Results as given in US20180235916A1, “ENHANCING BETA CELL REPLICATION AND/OR SURVIVAL” (priority 2015, published 2018).
In brackets after ≈: the same amount, converted by molar mass. Entries after “also recorded” stand apart in the source; their conditions may differ. Read-outs that look alike come from different tables or passages of the source.

Columns and labels:
INS-1 cells = assay: INS-1 cell proliferation, 3H-thymidine incorporation assay; format: cell-based; details: for INS-1 cell proliferation, single agents of TSPO experiment: each agent alone, midazolam or clonazepam 100 nM; for effect on GABA-stimulated INS-1 cell proliferation: low doses of PAM with GABA, FIG. 9 panels D-G
Procedure: (§1) 1. ^3H-thymidine incorporation assay: INS-1 cells at 1×10^5/well were treated in triplicate with indicated concentrations of individual compounds and cultured in 10% FCS RPMI164 medium in the presence of 0.3 μCi/well of 3H-thymidine for 48 hours (an optimal time period). The cells were harvested and the levels of ^3H-thymidine uptake in individual wells were measured by beta-counter.
as §1, with “0.3 uCi/well” for “0.3 μCi/well”, “of ^3H-thymidine” for “of 3H-thymidine”
INS-1 cells at 1×10^5/well were treated in triplicate with indicated concentrations of individual compounds and cultured in 10% FCS RPMI164 medium in the presence of ^3H-thymidine (0.3 μCi/well) for 48 hours (an optimal time period). The levels of ^3H-thymidine uptake in individual wells were measured by a scintillation counter.

[1] = Solubility of test compounds (stock solutions)
human islets = format: cell-based
Procedure: FIG. 2. Human islets (50/well) were incubated in media with, or without, alprazolam (30 ng/ml) for 4 days in the presence of ^3H thymidine. Data shown are the average rate of proliferation relative to that of cultures with media alone (designated as 1). N=two independent studies with triplicate cultures. Data was very similar in both studies.
N=two independent studies

[2] = long-term oral GABA, human clinical trials, epileptic seizures and cerebrovascular disorders; cited from earlier work
[3] = system: adult human β-cells in islet xenoplants; details: oral GABA treatment; from less than 1% without; cited from earlier work
[4] = patients with T1D or T2D, poor glucose control, after 8 weeks of treatment, vs placebo; cited from earlier work
[5] = molecular target: mitochondrial translocator protein (TSPO) (Homo sapiens, UniProt P30536); details: cited from earlier work
EAE = details: stressed rats; cited from earlier work
[6] = persons receiving the drug therapeutically; cited from earlier work
[7] = compound alone at 10^−7-10^−8 M
[8] = GABA 0.3 mM, PK11195 1 uM, 48 hrs
[9] = PAM alone at 10 or/and 100 nM, FIG. 9 panel B
[10] = PAM 100 nM with GABA 0.3 mM, 48 hrs
[11] = PAM at 10^−7 or 3×10^−8 M with GABA

Chain of mitochondrial translocator protein (TSPO) (P30536 whole entry): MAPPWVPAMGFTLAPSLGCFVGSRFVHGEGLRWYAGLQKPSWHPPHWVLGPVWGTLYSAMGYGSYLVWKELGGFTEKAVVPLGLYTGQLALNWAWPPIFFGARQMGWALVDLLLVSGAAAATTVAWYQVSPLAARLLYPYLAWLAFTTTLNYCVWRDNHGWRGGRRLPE

Cc1cc(NC(=O)/C(C#N)=C(\O)C2CC2)ccc1C(F)(F)F [AP325]
effect on GABA-induced INS-1 cell proliferation (INS-1 cells; AP325 at 10^−7-10^−8 M with GABA, FIG. 7): significantly enhanced GABA-induced INS-1 cell proliferation
INS-1 cell proliferation (toxicity at high dose) (INS-1 cells; compound alone at 10^−4-10^−5 M, FIG. 6): significantly inhibited INS-1 cell proliferation
INS-1 cell proliferation (INS-1 cells; compound alone at 10^−6-10^−10, FIG. 6): did not increase significantly the proliferation of INS-1 cells
INS-1 cell proliferation (INS-1 cells; [7]): slightly increased the proliferation of INS-1 cells
INS-1 cell proliferation (INS-1 cells; compound at 3×10^−7-10^−8 M together with 0.03 mM GABA): significantly promoted INS-1 cell proliferation
INS-1 cell proliferation (INS-1 cells; compound at 10^−6 M, data not shown): did not significantly change the proliferation of INS-1 cells
INS-1 cell proliferation (INS-1 cells; compound at 10^−7 together with 0.01 mM GABA): significantly stimulated INS-1 cell proliferation
soluble in DMSO ([1]; in DMSO): 50 mM

NCCCC(=O)O [GABA, gamma-aminobutyric acid]
human islet cell proliferation (human islets; 0.03 mM GABA alone, 4 days, FIG. 3): did not significantly enhance human islet cell proliferation
human islet cell proliferation (human islets; 0.03 mM GABA alone, FIG. 12): did not significantly enhance human islet cell proliferation
human islet cell proliferation (human islets; GABA alone at 0.3-3 mM, FIG. 12): significantly enhanced human islet cell proliferation
level of GABA alone required to achieve a similar level of proliferation (human islets; similar to 0.03 mM GABA + 100 nM alprazolam, FIG. 12): 0.3 mM
level of GABA alone required to achieve a similar level of proliferation (human islets; similar to 0.03 mM GABA + alprazolam 30 ng/ml, FIG. 3): 0.3 mM
INS-1 cell proliferation (INS-1 cells; 0.01 mM GABA alone, FIG. 9 panels C-G): did not stimulate INS-1 proliferation
INS-1 cell proliferation (INS-1 cells; GABA alone at 0.03-0.01 mM): failed to induce INS-1 cell proliferation; also recorded: did not significantly stimulate INS-1 cell proliferation
INS-1 cell proliferation (INS-1 cells; GABA alone at 0.03-0.3 mM, FIG. 9 panels C-G): stimulated INS-1 cell proliferation
INS-1 cell proliferation (INS-1 cells; GABA alone at 1-0.1 mM): stimulated INS-1 cell proliferation
INS-1 cell proliferation, single agents of TSPO experiment (INS-1 cells; [8]): induced INS-1 cell proliferation
adverse effects [2]: no adverse effects
clinical benefit [2]: no clinical benefit
replicating adult human β-cells in islet xenoplants [3]: 2-3%

CCC(C)N(C)C(=O)c1cc2ccccc2c(-c2ccccc2Cl)n1 (centres unmarked) [PK11195]
effect of TSPO inhibitor on GABA + midazolam or clonazepam enhanced INS-1 cell proliferation (INS-1 cells; PK11195 1 uM, GABA 0.3 mM, PAM 100 nM, 48 hrs, FIG. 9 panel H): not affected by PK11195; also recorded: did not affect the ability of GABA and the tested benzodiazepines to enhance INS-1 cell replication
INS-1 cell proliferation, single agents of TSPO experiment (INS-1 cells; [8]): but not clonazepam or PK11195 induced INS-1 cell proliferation

Cc1nnc2n1-c1ccc(Cl)cc1C(c1ccccc1)=NC2 [alprazolam]
human islet cell proliferation (human islets; 0.03 mM GABA together with 100 nM alprazolam, FIG. 12): significantly enhanced human islet cell proliferation
human islet cell proliferation enhanced (human islets; 0.03 mM GABA together with alprazolam 30 ng/ml, 4 days, FIG. 3): 138%
human islet cell proliferation promoted compared to cultures with no alprazolam (human islets; alprazolam 30 ng/ml alone, no added GABA, 4 days, FIG. 2): about 123%
human islet cell proliferation relative to the corresponding GABA (alone) dose (human islets; co-treatment 100 nM alprazolam and GABA, FIG. 12): significantly increased human islet cell proliferation
human islet cell proliferation (human islets; dose range of alprazolam alone, low concentrations, FIG. 10): promoted human islet cell proliferation
INS-1 cell proliferation (INS-1 cells; 0.01 mM GABA in the presence of 30 or 100 nM alprazolam, FIG. 9 panel C): significantly increased INS-1 cell proliferation
INS-1 cell proliferation (INS-1 cells; [9]): significantly stimulated proliferation of INS-1 cells
ability to enhance GABA's pro-mitotic effects on INS-1 cells (INS-1 cells; alprazolam at high concentration of GABA (0.1 or 0.3 mM)): had less ability to enhance GABA's pro-mitotic effects
HbA1c levels [4]: significantly reduced
binding to TSPO [5]: does not bind to TSPO
EAE and inflammation in the spinal cords (EAE): inhibited EAE and inflammation in the spinal cords
concentration in the serum [6]: 10 to 100 ng/mL

O=C1CN=C(c2ccccc2Cl)c2cc([N+](=O)[O-])ccc2N1 [clonazepam]
INS-1 cell proliferation (INS-1 cells; [10]): enhanced cell proliferation
effect on GABA-induced INS-1 cell proliferation (INS-1 cells; [11]): significantly enhanced GABA-stimulated INS-1 cell proliferation
INS-1 cell proliferation (INS-1 cells; compound alone at 10^−4-10^−9 M, 48 hours): did not significantly change the proliferation of INS-1 cells
INS-1 cell proliferation, single agents of TSPO experiment (INS-1 cells; [8]): but not clonazepam or PK11195 induced INS-1 cell proliferation
effect on GABA-stimulated INS-1 cell proliferation (INS-1 cells): enhanced GABA-stimulated INS-1 cell proliferation

Cc1ncc2n1-c1ccc(Cl)cc1C(c1ccccc1F)=NC2 [midazolam]
INS-1 cell proliferation (INS-1 cells; [10]): enhanced cell proliferation
INS-1 cell proliferation (INS-1 cells; [9]): significantly stimulated proliferation of INS-1 cells
effect on GABA-induced INS-1 cell proliferation (INS-1 cells; [11]): enhanced GABA-induced INS-1 cell proliferation
INS-1 cell proliferation (INS-1 cells; PAM at 10^−7 or 3×10^−8 M with GABA at 0.03-0.01 mM): significantly enhanced INS-1 cell proliferation
toxicity against INS-1 cells (INS-1 cells; compound alone at 10^−5 M): slight toxicity
INS-1 cell proliferation (INS-1 cells; compound alone at 10^−7-3×10^−8 M, FIG. 4B): significantly enhanced the proliferation of INS cells
INS-1 cell proliferation (INS-1 cells; [7]): significantly enhanced INS-1 cell proliferation
INS-1 cell proliferation, single agents of TSPO experiment (INS-1 cells; [8]): induced INS-1 cell proliferation
effect on GABA-stimulated INS-1 cell proliferation (INS-1 cells): enhanced GABA-stimulated INS-1 cell proliferation
solubility ([1]; water): 6.25 mM (≈ 2040 µg/mL)
